This is an account of results in patent EP0188647B1, “Acylated derivatives of cytidine-diphosphate-choline, process for their preparation and their therapeutic use” (NEOPHARMED S.p.A., priority 1985, dated 1986).

[1] abbreviates: control experiment, oral, 20 µmoles/kg, after 30 minutes, intestinal level.

Text: The required data refer to the distribution of radioactivity in the animal and also to structural identity of the radioactive molecular species present in some of the more significant biological samples (liver, brain, faeces, gastric and intestinal contents).
The scheme of extraction consents the recovery of three different classes of labelled metabolites: • 1) Hydrosoluble metabolites, subsequently analysed by HPLC. • 2) Metabolites with high molecular weights, proteins and nucleic acids, recovered by thermal denaturation in a hydroalcoholic environment. • 3) Lipids, subsequently purified by chromatography on silica.

Take `C[N+](C)(C)CCOP(=O)(O)OP(=O)([O-])OC[C@H]1O[C@@H](n2ccc(N)nc2=O)[C@H](O)[C@@H]1O` [CDP-choline, Cytidine-diphosphate-choline]: under setting [1], the “double labelled CDP-choline administered found at intestinal level” value is 0.2% and the “radioactivity present in the dose found at intestinal level” value was “not more than 5%”.

With `CCCCC(=O)Nc1ccn([C@@H]2O[C@H](COP(=O)(O)OP(=O)([O-])OCC[N+](C)(C)C)[C@@H](OC(=O)CCCC)[C@H]2OC(=O)CCCC)c(=O)n1` [trivaleryl-CDP-choline, N4-valeryl-2',3'-di-O-valeryl-CDP-choline], where the note is “rat, in vivo, po”, the “time of maximum uptake in the plasmatic component and in the organs” value came out at 5 h; the “total radioactivity, of that present in the administered dose” value was 30%.
